Holding throughout (assay type): binding
Assay [1] has as its target cytochrome P450 BM-3 (Priestia megaterium, UniProt P14779, R48K). Description: spectral.
The target of assay [2] is T1, cytochrome P450 BM-3 (Priestia megaterium, UniProt P14779).
T1 sequence (P14779 1-1049): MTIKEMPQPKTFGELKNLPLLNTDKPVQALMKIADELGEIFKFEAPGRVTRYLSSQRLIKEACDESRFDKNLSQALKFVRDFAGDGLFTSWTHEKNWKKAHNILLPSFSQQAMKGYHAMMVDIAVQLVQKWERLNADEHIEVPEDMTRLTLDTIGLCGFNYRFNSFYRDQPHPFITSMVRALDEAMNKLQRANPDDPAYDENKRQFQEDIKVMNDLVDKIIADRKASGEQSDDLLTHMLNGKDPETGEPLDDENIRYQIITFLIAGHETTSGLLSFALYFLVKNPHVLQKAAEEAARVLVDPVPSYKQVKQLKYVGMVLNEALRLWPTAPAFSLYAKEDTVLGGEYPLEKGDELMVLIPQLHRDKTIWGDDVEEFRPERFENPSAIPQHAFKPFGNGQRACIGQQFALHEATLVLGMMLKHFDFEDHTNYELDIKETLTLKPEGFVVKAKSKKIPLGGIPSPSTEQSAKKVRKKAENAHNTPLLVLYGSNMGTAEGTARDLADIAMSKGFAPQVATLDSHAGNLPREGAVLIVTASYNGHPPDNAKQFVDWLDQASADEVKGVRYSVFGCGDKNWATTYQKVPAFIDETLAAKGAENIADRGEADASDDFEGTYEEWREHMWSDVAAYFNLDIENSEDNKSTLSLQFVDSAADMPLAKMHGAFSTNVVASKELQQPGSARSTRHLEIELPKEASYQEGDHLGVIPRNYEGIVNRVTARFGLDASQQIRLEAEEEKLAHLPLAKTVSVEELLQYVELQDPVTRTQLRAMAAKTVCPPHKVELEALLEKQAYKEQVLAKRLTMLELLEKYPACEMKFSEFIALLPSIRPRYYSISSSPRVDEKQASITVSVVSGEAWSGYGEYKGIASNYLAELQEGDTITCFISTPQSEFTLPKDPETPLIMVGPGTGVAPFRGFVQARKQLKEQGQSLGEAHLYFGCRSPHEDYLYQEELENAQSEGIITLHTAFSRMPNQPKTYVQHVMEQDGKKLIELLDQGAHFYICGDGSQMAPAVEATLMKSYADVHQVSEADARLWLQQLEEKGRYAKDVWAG
Nature of the assay: crystal structure at […] Å.

Assay [3] deals with cytochrome P450 BM-3 (Priestia megaterium, UniProt P14779, R48Q). Nature of the assay: spectral.
Sequence of cytochrome P450 BM-3 (Priestia megaterium, UniProt P14779, R48Q) (P14779 whole entry R48Q): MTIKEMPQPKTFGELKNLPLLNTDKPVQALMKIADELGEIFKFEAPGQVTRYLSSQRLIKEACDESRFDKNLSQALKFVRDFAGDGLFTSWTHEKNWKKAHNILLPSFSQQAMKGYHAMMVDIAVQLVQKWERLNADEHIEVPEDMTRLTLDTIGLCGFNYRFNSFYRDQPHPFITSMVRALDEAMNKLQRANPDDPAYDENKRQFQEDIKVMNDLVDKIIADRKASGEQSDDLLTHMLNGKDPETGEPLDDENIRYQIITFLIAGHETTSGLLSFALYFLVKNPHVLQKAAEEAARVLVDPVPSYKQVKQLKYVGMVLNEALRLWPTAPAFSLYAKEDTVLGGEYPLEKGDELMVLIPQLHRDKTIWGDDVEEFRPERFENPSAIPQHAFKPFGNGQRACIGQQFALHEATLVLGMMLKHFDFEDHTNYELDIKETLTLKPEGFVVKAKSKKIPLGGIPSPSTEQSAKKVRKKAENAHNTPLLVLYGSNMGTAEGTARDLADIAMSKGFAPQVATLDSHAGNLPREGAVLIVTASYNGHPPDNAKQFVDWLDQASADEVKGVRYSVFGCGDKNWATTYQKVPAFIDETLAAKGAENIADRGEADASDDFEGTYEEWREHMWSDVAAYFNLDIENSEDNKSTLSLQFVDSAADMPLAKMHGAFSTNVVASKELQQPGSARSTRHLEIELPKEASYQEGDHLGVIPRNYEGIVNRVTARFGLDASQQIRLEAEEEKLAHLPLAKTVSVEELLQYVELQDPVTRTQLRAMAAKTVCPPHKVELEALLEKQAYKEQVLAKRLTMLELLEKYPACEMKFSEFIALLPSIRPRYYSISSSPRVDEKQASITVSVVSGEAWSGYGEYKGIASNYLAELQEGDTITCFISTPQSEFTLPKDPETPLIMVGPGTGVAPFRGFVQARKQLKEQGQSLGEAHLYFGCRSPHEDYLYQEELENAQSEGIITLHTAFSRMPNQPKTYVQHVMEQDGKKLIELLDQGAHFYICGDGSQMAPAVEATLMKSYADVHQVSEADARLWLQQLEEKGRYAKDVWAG

Sequence of cytochrome P450 BM-3 (Priestia megaterium, UniProt P14779, R48K) (P14779 whole entry R48K): as the sequence (P14779 whole entry R48Q) above, with Q48K counted along it

With `CCCCCCCCCCCCCCCC(=O)NCC(=O)O` [NPG, N-palmitoylglycine], the Kd at cytochrome P450 BM-3 [1] was determined as 1.2 ± 0.1 µM; at cytochrome P450 BM-3 [2], 0.37 ± 0.05 µM; at cytochrome P450 BM-3 [3], 7 ± 0.7 µM.

Values taken from paper PMC5945292 (Biochemistry, 2013).
